The text below walks through data of ChEMBL document CHEMBL4507319 (2021).

The term IC50 denotes the concentration that gives 50% inhibition.

Calls of active or inactive are those of the source. The calls are words filed in the database; no cut-off is given here. Where only a bound is given, the exact number is not on record here.

Test [1] has as its target SRSF protein kinase 2 (Homo sapiens) (UniProt P78362). Nature of the test: SRPK2(h) Eurofins kinase panel. Conditions: Compound concentration 1.0 uM.
Test [2] concerns the target Death-associated protein kinase 2 (Homo sapiens) (UniProt Q9UIK4). Briefly: DAPK2(h) Eurofins kinase panel. As to conditions: Compound concentration 1.0 uM.
The target of test [3] is Serine/threonine-protein kinase PLK2 (Homo sapiens) (UniProt Q9NYY3). Nature of the test: Snk(h) Eurofins kinase panel. Conditions: Compound concentration 1.0 uM.
In test [4] the target is Eukaryotic elongation factor 2 kinase (Homo sapiens) (UniProt O00418). Nature of the test: eEF-2K(h) Eurofins kinase panel. As to conditions: Compound concentration 1.0 uM.
Sequence of Eukaryotic elongation factor 2 kinase (Homo sapiens) (O00418 whole entry): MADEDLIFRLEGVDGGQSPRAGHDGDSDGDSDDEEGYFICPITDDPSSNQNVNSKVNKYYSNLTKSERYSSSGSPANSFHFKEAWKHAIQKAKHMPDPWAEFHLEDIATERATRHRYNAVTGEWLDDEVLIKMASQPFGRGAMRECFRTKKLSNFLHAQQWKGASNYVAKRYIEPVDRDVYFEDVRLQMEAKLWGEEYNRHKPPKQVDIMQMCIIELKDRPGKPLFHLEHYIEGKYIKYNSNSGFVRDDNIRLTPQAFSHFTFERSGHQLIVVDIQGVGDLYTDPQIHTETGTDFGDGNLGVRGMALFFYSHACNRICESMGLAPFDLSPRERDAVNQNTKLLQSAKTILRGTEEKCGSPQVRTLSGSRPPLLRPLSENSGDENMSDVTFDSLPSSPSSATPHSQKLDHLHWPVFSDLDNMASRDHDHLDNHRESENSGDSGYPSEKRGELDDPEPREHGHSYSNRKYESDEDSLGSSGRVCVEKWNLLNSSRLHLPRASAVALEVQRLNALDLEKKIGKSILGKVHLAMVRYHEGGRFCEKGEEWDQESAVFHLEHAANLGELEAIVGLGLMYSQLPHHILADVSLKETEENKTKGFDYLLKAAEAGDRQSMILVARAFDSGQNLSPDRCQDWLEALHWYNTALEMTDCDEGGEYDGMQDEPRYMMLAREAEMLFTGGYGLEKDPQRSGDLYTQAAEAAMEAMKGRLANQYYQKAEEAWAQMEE
The target in test [5] is Serine/threonine-protein kinase 24 (Homo sapiens, UniProt Q9Y6E0).
Sequence of Serine/threonine-protein kinase 24 (Q9Y6E0 whole entry): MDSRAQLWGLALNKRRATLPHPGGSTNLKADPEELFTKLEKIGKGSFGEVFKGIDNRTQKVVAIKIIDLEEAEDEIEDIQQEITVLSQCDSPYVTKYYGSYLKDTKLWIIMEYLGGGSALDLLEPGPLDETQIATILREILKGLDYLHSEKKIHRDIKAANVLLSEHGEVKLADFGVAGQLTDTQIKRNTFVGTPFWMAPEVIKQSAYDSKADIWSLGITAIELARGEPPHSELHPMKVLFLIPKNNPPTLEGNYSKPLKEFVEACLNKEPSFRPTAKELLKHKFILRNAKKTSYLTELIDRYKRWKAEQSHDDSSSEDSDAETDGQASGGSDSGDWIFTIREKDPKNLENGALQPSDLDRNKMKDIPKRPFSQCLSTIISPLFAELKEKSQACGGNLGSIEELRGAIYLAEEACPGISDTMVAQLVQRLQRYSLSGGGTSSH
Test [6] has as its target Mitogen-activated protein kinase kinase kinase kinase 1 (Homo sapiens) (UniProt Q92918). Briefly: HPK1(h) Eurofins kinase panel. As to conditions: Compound concentration 1.0 uM.
The next test concerns SW480. Briefly: SW480 cell line Proliferation assay. Conditions: time 3 day. The test is classed as functional, Homo sapiens.
The target in test [7] is Death-associated protein kinase 3 (Homo sapiens) (UniProt O43293). Briefly: ZIPK(h) Eurofins kinase panel. Conditions: Compound concentration 1.0 uM.
Sequence of Death-associated protein kinase 3 (Homo sapiens) (O43293 whole entry, looked up): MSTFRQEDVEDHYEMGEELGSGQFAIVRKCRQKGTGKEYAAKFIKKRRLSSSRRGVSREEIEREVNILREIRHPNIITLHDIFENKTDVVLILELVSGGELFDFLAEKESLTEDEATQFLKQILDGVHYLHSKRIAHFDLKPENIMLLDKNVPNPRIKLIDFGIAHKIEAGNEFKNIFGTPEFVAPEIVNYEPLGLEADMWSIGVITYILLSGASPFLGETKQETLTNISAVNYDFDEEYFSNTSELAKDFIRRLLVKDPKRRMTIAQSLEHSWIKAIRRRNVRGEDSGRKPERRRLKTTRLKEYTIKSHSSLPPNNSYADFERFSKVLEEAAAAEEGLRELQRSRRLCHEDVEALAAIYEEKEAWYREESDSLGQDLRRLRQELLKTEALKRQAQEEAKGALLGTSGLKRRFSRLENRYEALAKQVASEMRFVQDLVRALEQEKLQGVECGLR
In test [8] the target is T1, Myosin light chain kinase (Homo sapiens) (UniProt Q32MK0).
T1 sequence (whole entry): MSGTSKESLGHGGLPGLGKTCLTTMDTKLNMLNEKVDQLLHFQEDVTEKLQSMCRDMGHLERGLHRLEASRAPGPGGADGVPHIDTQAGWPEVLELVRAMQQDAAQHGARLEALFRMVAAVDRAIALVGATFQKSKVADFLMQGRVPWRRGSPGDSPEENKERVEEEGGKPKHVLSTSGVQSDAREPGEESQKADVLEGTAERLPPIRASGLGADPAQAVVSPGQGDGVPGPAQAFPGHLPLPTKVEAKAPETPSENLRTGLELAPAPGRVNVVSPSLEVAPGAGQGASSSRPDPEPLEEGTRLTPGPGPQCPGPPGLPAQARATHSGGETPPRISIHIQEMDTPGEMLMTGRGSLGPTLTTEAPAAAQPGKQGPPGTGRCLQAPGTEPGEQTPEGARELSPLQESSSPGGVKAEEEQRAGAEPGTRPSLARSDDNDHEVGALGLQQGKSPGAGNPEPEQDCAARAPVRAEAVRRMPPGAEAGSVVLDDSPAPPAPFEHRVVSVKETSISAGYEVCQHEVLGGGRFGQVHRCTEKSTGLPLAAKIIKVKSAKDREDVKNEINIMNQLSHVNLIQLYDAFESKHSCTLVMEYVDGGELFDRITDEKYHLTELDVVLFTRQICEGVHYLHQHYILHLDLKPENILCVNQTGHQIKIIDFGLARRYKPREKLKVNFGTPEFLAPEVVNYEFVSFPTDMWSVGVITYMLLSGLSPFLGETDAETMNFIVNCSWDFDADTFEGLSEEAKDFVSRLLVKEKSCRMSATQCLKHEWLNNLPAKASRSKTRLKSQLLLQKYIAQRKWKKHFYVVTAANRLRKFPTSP
Nature of the test: MLCK(h) Eurofins kinase panel. Conditions: Compound concentration 1.0 uM.

In test [9] the target is Dual specificity mitogen-activated protein kinase kinase 1 (Homo sapiens) (UniProt Q02750). Nature of the test: MEK1(h) Eurofins kinase panel. Conditions: Compound concentration 1.0 uM.
Sequence of Dual specificity mitogen-activated protein kinase kinase 1 (Homo sapiens) (Q02750 whole entry): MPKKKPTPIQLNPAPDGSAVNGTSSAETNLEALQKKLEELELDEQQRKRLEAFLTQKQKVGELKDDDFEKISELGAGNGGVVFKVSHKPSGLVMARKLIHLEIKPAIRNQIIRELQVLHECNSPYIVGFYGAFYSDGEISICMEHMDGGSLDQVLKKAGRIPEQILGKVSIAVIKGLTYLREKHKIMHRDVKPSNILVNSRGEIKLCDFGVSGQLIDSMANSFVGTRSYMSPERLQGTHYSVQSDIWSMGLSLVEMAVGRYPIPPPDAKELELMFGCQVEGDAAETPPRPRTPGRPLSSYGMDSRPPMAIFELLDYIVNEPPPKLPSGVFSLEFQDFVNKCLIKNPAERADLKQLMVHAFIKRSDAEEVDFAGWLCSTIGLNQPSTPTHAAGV
The next test concerns Ramos. Nature of the test: Ramos cell line Proliferation assay. It is filed as functional, Homo sapiens. Conditions: time 3 day.
Another test deals with HeLa. Nature of the test: HeLa cell line Proliferation assay. Conditions: time 3 day. It is filed as functional, Homo sapiens.
Test [10] addresses Casein kinase I isoform gamma-1 (Homo sapiens) (UniProt Q9HCP0). Briefly: CK1gamma1(h) Eurofins kinase panel. As to conditions: Compound concentration 1.0 uM.
Test [11] concerns the target 5'-AMP-activated protein kinase catalytic subunit alpha-1 (Homo sapiens, UniProt Q13131). Nature of the test: Eurofins kinase panel (PRKAA1). Set-up: compound concentration 1 uM.
The target of test [12] is Insulin-like growth factor 1 receptor (Homo sapiens) (UniProt P08069). Nature of the test: IGF-1R(h) Eurofins kinase panel. Conditions: Compound concentration 1.0 uM.
The target of test [13] is T2, Serine/threonine-protein kinase D1 (Homo sapiens) (UniProt Q15139).
T2 sequence (whole entry): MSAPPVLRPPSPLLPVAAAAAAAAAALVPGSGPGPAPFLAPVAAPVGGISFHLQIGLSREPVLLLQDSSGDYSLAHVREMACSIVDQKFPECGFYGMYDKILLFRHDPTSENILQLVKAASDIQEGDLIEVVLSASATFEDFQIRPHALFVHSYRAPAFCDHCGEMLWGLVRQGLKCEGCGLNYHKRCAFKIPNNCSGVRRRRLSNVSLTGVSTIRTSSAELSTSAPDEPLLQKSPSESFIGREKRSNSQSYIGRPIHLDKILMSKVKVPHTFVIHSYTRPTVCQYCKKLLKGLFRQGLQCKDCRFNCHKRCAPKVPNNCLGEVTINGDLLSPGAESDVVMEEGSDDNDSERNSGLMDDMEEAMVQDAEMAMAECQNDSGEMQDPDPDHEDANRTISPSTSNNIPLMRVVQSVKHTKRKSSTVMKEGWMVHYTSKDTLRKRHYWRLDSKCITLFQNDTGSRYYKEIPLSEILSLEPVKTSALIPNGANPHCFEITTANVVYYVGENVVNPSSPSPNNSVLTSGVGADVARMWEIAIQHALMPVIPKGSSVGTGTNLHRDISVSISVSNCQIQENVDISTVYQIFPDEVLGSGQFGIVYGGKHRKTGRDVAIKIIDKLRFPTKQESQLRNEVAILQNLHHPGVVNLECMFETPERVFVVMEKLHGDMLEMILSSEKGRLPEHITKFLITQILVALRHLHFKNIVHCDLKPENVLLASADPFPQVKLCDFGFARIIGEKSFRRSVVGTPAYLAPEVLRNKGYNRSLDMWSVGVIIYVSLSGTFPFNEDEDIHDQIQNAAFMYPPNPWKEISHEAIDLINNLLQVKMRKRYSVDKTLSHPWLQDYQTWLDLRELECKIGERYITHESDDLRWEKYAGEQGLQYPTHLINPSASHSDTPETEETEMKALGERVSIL
Briefly: PKCmu (h) Eurofins kinase panel. Conditions: Compound concentration 1.0 uM.

Test [14] addresses Serine-protein kinase ATM (Homo sapiens) (UniProt Q13315). Nature of the test: ATM(h) Eurofins kinase panel. Conditions: Compound concentration 1.0 uM.
Another test has as its system DU-145. Briefly: DU-145 cell line Proliferation assay. The test is classed as functional, Homo sapiens. Conditions: time 6 day.
In test [15] the target is Epidermal growth factor receptor (Homo sapiens) (UniProt P00533). Briefly: EGFR(h) Eurofins kinase panel. As to conditions: Compound concentration 1.0 uM.
Sequence of Epidermal growth factor receptor (Homo sapiens) (P00533 whole entry): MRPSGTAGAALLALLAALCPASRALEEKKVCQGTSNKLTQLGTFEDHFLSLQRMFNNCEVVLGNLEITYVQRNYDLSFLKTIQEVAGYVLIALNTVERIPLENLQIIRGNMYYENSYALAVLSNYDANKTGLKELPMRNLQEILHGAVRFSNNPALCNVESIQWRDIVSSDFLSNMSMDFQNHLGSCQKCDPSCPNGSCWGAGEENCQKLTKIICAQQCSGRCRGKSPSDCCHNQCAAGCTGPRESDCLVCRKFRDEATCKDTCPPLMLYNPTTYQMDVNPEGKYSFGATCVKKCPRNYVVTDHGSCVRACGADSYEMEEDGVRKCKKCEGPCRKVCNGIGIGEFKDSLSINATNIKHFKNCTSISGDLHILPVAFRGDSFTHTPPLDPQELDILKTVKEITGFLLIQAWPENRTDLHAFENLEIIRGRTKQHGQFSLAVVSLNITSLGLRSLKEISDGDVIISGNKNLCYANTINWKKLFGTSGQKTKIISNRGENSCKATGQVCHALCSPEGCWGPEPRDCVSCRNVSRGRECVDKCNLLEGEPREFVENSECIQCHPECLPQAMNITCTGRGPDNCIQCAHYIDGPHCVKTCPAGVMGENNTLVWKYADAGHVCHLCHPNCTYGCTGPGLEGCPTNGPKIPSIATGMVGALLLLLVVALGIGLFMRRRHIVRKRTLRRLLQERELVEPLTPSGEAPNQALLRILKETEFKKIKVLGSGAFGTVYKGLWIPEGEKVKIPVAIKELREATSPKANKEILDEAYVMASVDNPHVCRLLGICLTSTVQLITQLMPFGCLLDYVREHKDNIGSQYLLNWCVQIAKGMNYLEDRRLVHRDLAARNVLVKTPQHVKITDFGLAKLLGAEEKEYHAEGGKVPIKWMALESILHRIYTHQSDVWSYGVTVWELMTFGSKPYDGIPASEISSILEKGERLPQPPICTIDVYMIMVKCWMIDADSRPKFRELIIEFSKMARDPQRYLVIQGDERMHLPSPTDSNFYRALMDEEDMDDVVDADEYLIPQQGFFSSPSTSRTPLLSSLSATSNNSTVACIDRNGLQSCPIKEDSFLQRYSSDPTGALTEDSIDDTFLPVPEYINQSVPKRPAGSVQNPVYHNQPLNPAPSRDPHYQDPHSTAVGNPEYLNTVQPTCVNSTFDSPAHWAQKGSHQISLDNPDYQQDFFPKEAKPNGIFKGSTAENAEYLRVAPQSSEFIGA
Test [16] concerns the target RAC-beta serine/threonine-protein kinase (Homo sapiens) (UniProt P31751). Nature of the test: PKBbeta (h) Eurofins kinase panel. Conditions: Compound concentration 1.0 uM.

Sequence of SRSF protein kinase 2 (Homo sapiens) (P78362 whole entry, looked up): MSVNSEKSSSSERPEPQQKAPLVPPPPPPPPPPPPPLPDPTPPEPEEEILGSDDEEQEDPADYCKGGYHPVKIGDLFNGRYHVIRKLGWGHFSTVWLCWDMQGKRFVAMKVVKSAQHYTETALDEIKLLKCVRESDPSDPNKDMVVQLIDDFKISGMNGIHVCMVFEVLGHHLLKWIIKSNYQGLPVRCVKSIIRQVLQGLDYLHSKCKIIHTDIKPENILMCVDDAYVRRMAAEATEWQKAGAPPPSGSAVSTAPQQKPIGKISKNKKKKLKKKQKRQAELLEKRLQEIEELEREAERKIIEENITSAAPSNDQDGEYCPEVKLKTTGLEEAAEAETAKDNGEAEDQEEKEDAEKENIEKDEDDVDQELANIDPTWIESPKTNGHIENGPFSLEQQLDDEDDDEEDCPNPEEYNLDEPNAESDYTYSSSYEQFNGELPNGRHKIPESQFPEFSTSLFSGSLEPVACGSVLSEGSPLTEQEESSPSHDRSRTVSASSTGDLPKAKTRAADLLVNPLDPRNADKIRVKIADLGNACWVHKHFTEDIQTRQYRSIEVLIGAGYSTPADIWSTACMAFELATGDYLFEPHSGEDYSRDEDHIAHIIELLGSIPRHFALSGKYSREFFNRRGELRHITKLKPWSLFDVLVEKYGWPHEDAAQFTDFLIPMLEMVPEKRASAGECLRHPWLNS
Sequence of 5'-AMP-activated protein kinase catalytic subunit alpha-1 (Q13131 whole entry): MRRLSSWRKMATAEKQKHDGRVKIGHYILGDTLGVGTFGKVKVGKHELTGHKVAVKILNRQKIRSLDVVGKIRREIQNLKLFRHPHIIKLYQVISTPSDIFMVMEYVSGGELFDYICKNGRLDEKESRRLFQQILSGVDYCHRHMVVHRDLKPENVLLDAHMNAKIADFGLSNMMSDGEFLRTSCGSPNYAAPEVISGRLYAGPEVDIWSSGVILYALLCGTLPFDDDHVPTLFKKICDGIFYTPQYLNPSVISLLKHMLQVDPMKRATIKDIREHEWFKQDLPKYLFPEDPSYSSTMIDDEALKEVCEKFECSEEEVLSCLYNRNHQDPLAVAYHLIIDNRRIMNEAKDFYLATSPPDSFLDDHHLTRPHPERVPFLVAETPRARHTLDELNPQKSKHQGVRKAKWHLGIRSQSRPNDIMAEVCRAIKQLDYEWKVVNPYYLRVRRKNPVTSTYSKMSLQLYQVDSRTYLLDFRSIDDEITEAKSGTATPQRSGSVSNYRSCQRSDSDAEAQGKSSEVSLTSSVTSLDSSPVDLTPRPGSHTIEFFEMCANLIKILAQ
Sequence of RAC-beta serine/threonine-protein kinase (Homo sapiens) (P31751 whole entry): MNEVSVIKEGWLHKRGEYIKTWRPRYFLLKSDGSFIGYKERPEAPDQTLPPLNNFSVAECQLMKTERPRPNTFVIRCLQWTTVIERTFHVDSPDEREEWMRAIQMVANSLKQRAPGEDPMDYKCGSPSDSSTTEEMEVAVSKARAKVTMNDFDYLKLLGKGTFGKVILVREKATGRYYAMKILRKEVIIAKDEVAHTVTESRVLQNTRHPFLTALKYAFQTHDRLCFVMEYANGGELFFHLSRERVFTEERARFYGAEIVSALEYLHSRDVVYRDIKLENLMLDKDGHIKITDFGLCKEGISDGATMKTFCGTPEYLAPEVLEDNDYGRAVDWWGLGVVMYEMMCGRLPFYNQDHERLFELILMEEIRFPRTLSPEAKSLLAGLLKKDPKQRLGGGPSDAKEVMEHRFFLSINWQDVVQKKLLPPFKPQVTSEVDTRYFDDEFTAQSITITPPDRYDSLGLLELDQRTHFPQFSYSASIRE

As for `CCc1ccccc1C(=O)Nc1n[nH]c2c(C)c(F)c(C3C(C#N)=C(C)N(C)C(C)=C3C#N)cc12` [BAY-3827], the % residual kinase activity in test [1] is 83%; in [2] it was 96%; in test [3] it was 100%; in test [4] it was 141%; in test [6], 57%; in [7] it was 91%. The % residual kinase activity in test [8] is 32%; in test [9], 90%; in [10], 101%; in test [12], 110%; in [13], 96%; in [14], 99%. In addition, the % residual kinase activity in test [15] is 107%; in test [16], 105%. In addition, the results for the IC50 in test [5] and in test [11] were 0.094 µM and 0.007 µM (active), respectively. The “Cell Proliferation IC50” value was 27.8 µM with SW480, 12.1 µM in the test with Ramos, 25.7 µM with HeLa and greater than 10 µM in the test on DU-145.
